In patent US20250170237A1, “MURAMYL DIPEPTIDES AND PROCESS FOR PREPARATION THEREOF” (priority 2022, published 2025):

How the values were obtained:
[1] = system: OVA antigen; assay: IgG titer with OVA antigen (indirect ELISA, immunized mice); assay type: in vivo, BALB/c mice
Protocol: (§1) Adjuvanticity of 15b was evaluated using antigens (OVA, HBsAg, DENV and JEV) in BALB/c mice model—From the immunized mice retro-orbital sampling or retro-orbital blood was collected on 14th and 28th day before sacrifice. Serum was separated by centrifugation at 12,500 rpm for 5 min. Transferred to a clean centrifuge tube and store at −80 until used.
(§2) The plates were coated with antigen in carbonate buffer. Plates were incubated at 4° C. overnight. They were then washed 3 times with PBS/Tween, and non-specific binding sites were blocked by adding 200 μl of blocking solution. Plates were incubated at room temperature for 1 h. Then 3 times wash is done, diluted standards and samples to desired concentrations in blocking solution were added to the plates. Incubate at 37° C. for 1 h or at 4° C. overnight. Plates were washed 3 times with PBS/Tween. Avidin-Horseradish Peroxidase (Av-HRP) was diluted and added. Incubated at room temperature for 30 min. Plates were washed 3 times with PBS/Tween. OPD Substrate was added and plates were incubated at room temperature (4-30 min) for colour development. The colour reaction was stopped by adding 50 μl of stop solution. Optical density (OD) was read at 492 nm.

[2] = system: JEV antigen; assay: IgG titer with JEV antigen; assay type: in vivo, BALB/c mice
Protocol: as §1, §2

[3] = system: splenocytes; assay: Post JEV immunization In vivo splenocyte proliferation assay; parameters: species or system BALB/c mice
Protocol: Splenocytes were seeded into 96-well flat-bottom microtiter plates having 1×10^5 cells/well in […] complete RPMI-1640 medium. Plates were incubated at 37° C. with 5% CO2. After 48 h, […] MTT solution (5 mg/mL) was added to each well and left to incubate for next 4 h. Untransformed MTT ([…]) was removed from each well by pipetting. A total of […] of DMSO was added and the absorbance was evaluated in an ELISA reader at 630 nm on the multimode reader (Infinite 200 Pro, Switzerland) after 15 min

[4] = system: cytokines IL-1, IL-2, IL-4, IFN, IL-6, IL-10, IL-12, TNF; assay: Post JEV immunization In vivo cytokine assay; parameters: species or system BALB/c mice
Protocol: ELISA was carried out by Bio Legend capture and detection antibodies. Briefly, 96-well plates were coated with capture antibody dissolved in coating buffer per well incubated overnight at 4° C. Wells were blocked with BSA for 1 h at RT. After blocking, 50 μL/well of serum was added and incubated for 3 h. After washing, Biotinylated secondary antibody was added along with enzyme. Plates were incubated for 1 h at RT. Then plates were washed and TMB substrate solution was added. The reaction was stopped after 30 min with a stopping solution. Absorbance was measured at 450 nm with a plate reader.

[5] = In vitro Hemolysis assay; details: even at higher concentrations
[6] = system: antigens (OVA, HBsAg, DENV and JEV); assay: Serum anti-antigens (OVA, HBsAg, DENV and JEV) IgG titer, overall statements; assay type: in vivo, BALB/c mice; details: 15b against Ovalbumin, DEV, 15f against JEV
Protocol: as §1, §2

CCCCCCCC(=O)OCCCCCCCC(=O)N[C@H]1C(O)O[C@H](CO)[C@@H](O)[C@@H]1O[C@H](C)C(=O)N[C@@H](C)C(=O)N[C@H](CCC(=O)O)C(N)=O (stereo partly drawn) [15 h, (4R)-5-amino-4-((2S)-2-((2R)-2-(((3R,4R,5S,6R)-2,5-dihydroxy-6-(hydroxymethyl)-3-(8-(octanoyloxy)octanamido)tetrahydro-2H-pyran-4-yl)oxy)propanamido)propanamido)-5-oxopentanoic acid]
IgG titer with OVA antigen ([1]; dose 1 μg): 8750-64000 | IgG titer with OVA antigen ([1]; dose 10 μg): 10000-50000 | IgG titer with OVA antigen ([1]; dose 100 μg): 3750-25000

C[C@H](NC(=O)[C@@H](C)O[C@H]1[C@H](O)[C@@H](CO)OC(O)[C@@H]1NC(=O)C1CCC1)C(=O)N[C@H](CCC(=O)O)C(N)=O (stereo partly drawn) [15c, (4R)-5-amino-4-((2S)-2-((2R)-2-(((3R,4R,5S,6R)-3-(cyclobutanecarboxamido)-2,5-dihydroxy-6-(hydroxymethyl)tetrahydro-2H-pyran-4-yl)oxy)propanamido)propanamido)-5-oxopentanoic acid]
IgG titer with OVA antigen ([1]; dose 1 μg): 25000-102400 | IgG titer with OVA antigen ([1]; dose 10 μg): 10000-85000 | IgG titer with OVA antigen ([1]; dose 100 μg): 5500-75000

C[C@H](NC(=O)[C@@H](C)O[C@H]1[C@H](O)[C@@H](CO)OC(O)[C@@H]1NC(=O)C1CCCC1)C(=O)N[C@H](CCC(=O)O)C(N)=O (stereo partly drawn) [15d, (4R)-5-amino-4-((2S)-2-((2R)-2-(((3R,4R,5S,6R)-3-(cyclopentanecarboxamido)-2,5-dihydroxy-6-(hydroxymethyl)tetrahydro-2H-pyran-4-yl)oxy)propanamido)propanamido)-5-oxopentanoic acid]
IgG titer with OVA antigen ([1]; dose 1 μg): 3200-12400 | IgG titer with OVA antigen ([1]; dose 10 μg): 3200-41600 | IgG titer with OVA antigen ([1]; dose 100 μg): 6400-84000

C[C@H](NC(=O)[C@@H](C)O[C@H]1[C@H](O)[C@@H](CO)OC(O)[C@@H]1NC(=O)C1CCCCC1)C(=O)N[C@H](CCC(=O)O)C(N)=O (stereo partly drawn) [15e, (4R)-5-amino-4-((2S)-2-((2R)-2-(((3R,4R,5S,6R)-3-(cyclohexanecarboxamido)-2,5-dihydroxy-6-(hydroxymethyl)tetrahydro-2H-pyran-4-yl)oxy)propanamido)propanamido)-5-oxopentanoic acid]
IgG titer with OVA antigen ([1]; dose 1 μg): 1600-12400 | IgG titer with OVA antigen ([1]; dose 10 μg): 1600-41600 | IgG titer with OVA antigen ([1]; dose 100 μg): 12800-96000

CCCCCCCCCCCCCC(=O)OCCCCCCCC(=O)N[C@H]1C(O)O[C@H](CO)[C@@H](O)[C@@H]1O[C@H](C)C(=O)N[C@@H](C)C(=O)N[C@H](CCC(=O)O)C(N)=O (stereo partly drawn) [15f, (4R)-5-amino-4-((2S)-2-((2R)-2-(((3R,4R,5S,6R)-2,5-dihydroxy-6-(hydroxymethyl)-3-(8-(tetradecanoyloxy)octanamido)tetrahydro-2H-pyran-4-yl)oxy)propanamido)propanamido)-5-oxopentanoic acid]
IgG titer with OVA antigen ([1]; dose 1 μg): 8000-25400 | IgG titer with OVA antigen ([1]; dose 10 μg): 5000-41600 | IgG titer with OVA antigen ([1]; dose 100 μg): 200000-960000 | IgG titer with JEV antigen ([2]; dose 5 μG (Table 21)): 80000-160000 | IgG titer with JEV antigen ([2]; dose 20 μG (Table 21)): 160000-640000 | IgG titer with JEV antigen ([2]; dose 50 μG (Table 21)): 640000-9560000 | Splenocyte proliferation, Con A ([3]; dose 5 μG (Table 25)): 125-141 | Splenocyte proliferation, JEV ([3]; dose 5 μG (Table 25)): 139-147 | Splenocyte proliferation, LPS ([3]; dose 5 μG (Table 25)): 124-134 | Splenocyte proliferation, Con A ([3]; dose 20 μG (Table 25)): 134-142 | Splenocyte proliferation, JEV ([3]; dose 20 μG (Table 25)): 149-162 | Splenocyte proliferation, LPS ([3]; dose 20 μG (Table 25)): 128-137 | Splenocyte proliferation, Con A ([3]; dose 50 μG (Table 25)): 245-264 | Splenocyte proliferation, LPS ([3]; dose 50 μG (Table 25)): 184-192 | TNF ([4]; dose 5 μG (Table 24)): 624 to 654 pg/mL | IL-1 ([4]; dose 5 μG (Tables 22, 24)): 745 to 845 pg/mL | IL-2 ([4]; dose 5 μG (Tables 22, 24)): 41 to 52 pg/mL | IL-4 ([4]; dose 5 μG (Tables 22, 24)): 134 to 155 pg/mL | IL-10 ([4]; dose 5 μG (Tables 22, 24)): 243 to 294 pg/mL | IL-12 ([4]; dose 5 μG (Tables 22, 24)): 124 to 147 pg/mL | TNF ([4]; dose 20 μG (Table 24)): 898 to 942 pg/mL | IL-1 ([4]; dose 20 μG (Tables 22, 24)): 1059 to 1124 pg/mL | IL-2 ([4]; dose 20 μG (Tables 22, 24)): 52 to 64 pg/mL | IL-4 ([4]; dose 20 μG (Tables 22, 24)): 138 to 146 pg/mL | IL-10 ([4]; dose 20 μG (Tables 22, 24)): 398 to 421 pg/mL | IL-12 ([4]; dose 20 μG (Tables 22, 24)): 175 to 194 pg/mL | TNF ([4]; dose 50 μG (Table 24)): 1024 to 1124 pg/mL | IL-1 ([4]; dose 50 μG (Tables 22, 24)): 1487 to 1634 pg/mL | IL-2 ([4]; dose 50 μG (Tables 22, 24)): 69 to 76 pg/mL | IL-4 ([4]; dose 50 μG (Tables 22, 24)): 148 to 164 pg/mL | IL-10 ([4]; dose 50 μG (Tables 22, 24)): 424 to 487 pg/mL | IL-12 ([4]; dose 50 μG (Tables 22, 24)): 136 to 147 pg/mL | toxicity and hemolysis, conclusion in words [5]: non-toxic and non-hemolytic | antibody titer, conclusion in words [6]: significant antibody titer

CCCCCCCCCCCC(=O)OCCCCCCCC(=O)N[C@H]1C(O)O[C@H](CO)[C@@H](O)[C@@H]1O[C@H](C)C(=O)N[C@@H](C)C(=O)N[C@H](CCC(=O)O)C(N)=O (stereo partly drawn) [15g, (4R)-5-amino-4-((2S)-2-((2R)-2-(((3R,4R,5S,6R)-3-(8-(dodecanoyloxy)octanamido)-2,5-dihydroxy-6-(hydroxymethyl)tetrahydro-2H-pyran-4-yl)oxy)propanamido)propanamido)-5-oxopentanoic acid]
IgG titer with OVA antigen ([1]; dose 1 μg): 25000-124000 | IgG titer with OVA antigen ([1]; dose 10 μg): 10000-60000 | IgG titer with OVA antigen ([1]; dose 100 μg): 5000-35000

C[C@H](NC(=O)[C@@H](C)O[C@H]1[C@H](O)[C@@H](CO)OC(O)[C@@H]1NC(=O)C1CCCO1)C(=O)N[C@H](CCC(=O)O)C(N)=O (stereo partly drawn) [15i, (4R)-5-amino-4-((2S)-2-((2R)-2-(((3R,4R,5S,6R)-2,5-dihydroxy-6-(hydroxymethyl)-3-(tetrahydrofuran-2-carboxamido)tetrahydro-2H-pyran-4-yl)oxy)propanamido)propanamido)-5-oxopentanoic acid]
IgG titer with OVA antigen ([1]; dose 1 μg): 4800-50000 | IgG titer with OVA antigen ([1]; dose 10 μg): 102400-560000 | IgG titer with OVA antigen ([1]; dose 100 μg): 119466-484000

B1: OVA (protein, UniProt P01012 2-386, looked up)
Ovalbumin: GSIGAASMEFCFDVFKELKVHHANENIFYCPIAIMSALAMVYLGAKDSTRTQINKVVRFDKLPGFGDSIEAQCGTSVNVHSSLRDILNQITKPNDVYSFSLASRLYAEERYPILPEYLQCVKELYRGGLEPINFQTAADQARELINSWVESQTNGIIRNVLQPSSVDSQTAMVLVNAIVFKGLWEKAFKDEDTQAMPFRVTEQESKPVQMMYQIGLFRVASMASEKMKILELPFASGTMSMLVLLPDEVSGLEQLESIINFEKLTEWTSSNVMEERKIKVYLPRMKMEEKYNLTSVLMAMGITDVFSSSANLSGISSAESLKISQAVHAAHAEINEAGREVVGSAEAGVDAASVSEEFRADHPFLFCIKHIATNAVLFFGRCVSP
IgG titer with OVA antigen ([1]; OVA 100 μg alone): 6400-12800
